Reference: PubChem BioAssay AID1963986 (Molecular Pharmacology Branch, DTP, NCI, 2024)

Test system: 171881-019-R-J1-PDC tumor spheroid viability
Experiment: Anticancer human tumor 171881-019-R-J1-PDC patient-derived invasive breast carcinoma cell line growth inhibition [PI3K]
Settings: spheroids with HUVEC and MSC; for viability, T/C: stronger effect = lower value
Method in brief: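 Stroma-containing spheroids: tumor line, pooled-donor HUVEC, hMSC. Treatments: targeted agents with PI3K inhibitors. Dosing: clinically relevant, half-log spacing, 10 microM ceiling without known Cmax. Read-out: cell viability.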

[1] = curve of first compound, second compound 0.0316 µM
[2] = curve of first compound, second compound 0.1 µM
[3] = curve of first compound, second compound 0.316 µM
[4] = curve of first compound, second compound 1 µM
[5] = curve of first compound, second compound 3.16 µM
[6] = curve of first compound, second compound 10 µM
[7] = second compound 0.0316 µM, first compound 0.0316 µM
[8] = second compound 0.0316 µM, first compound 0.1 µM
[9] = second compound 0.0316 µM, first compound 0.316 µM
[10] = second compound 0.0316 µM, first compound 1 µM
[11] = second compound 0.0316 µM, first compound 3.16 µM
[12] = second compound 0.0316 µM, first compound 10 µM
[13] = second compound 0.1 µM, first compound 0.0316 µM
[14] = second compound 0.1 µM, first compound 0.1 µM
[15] = second compound 0.1 µM, first compound 0.316 µM
[16] = second compound 0.1 µM, first compound 1 µM
[17] = second compound 0.1 µM, first compound 3.16 µM
[18] = second compound 0.1 µM, first compound 10 µM
[19] = second compound 0.316 µM, first compound 0.0316 µM
[20] = second compound 0.316 µM, first compound 0.1 µM
[21] = second compound 0.316 µM, first compound 0.316 µM
[22] = second compound 0.316 µM, first compound 1 µM
[23] = second compound 0.316 µM, first compound 3.16 µM
[24] = second compound 0.316 µM, first compound 10 µM
[25] = second compound 1 µM, first compound 0.0316 µM
[26] = second compound 1 µM, first compound 0.1 µM
[27] = second compound 1 µM, first compound 0.316 µM
[28] = second compound 1 µM, first compound 1 µM
[29] = second compound 1 µM, first compound 3.16 µM
[30] = second compound 1 µM, first compound 10 µM
[31] = second compound 3.16 µM, first compound 0.0316 µM
[32] = second compound 3.16 µM, first compound 0.1 µM
[33] = second compound 3.16 µM, first compound 0.316 µM
[34] = second compound 3.16 µM, first compound 1 µM
[35] = second compound 3.16 µM, first compound 3.16 µM
[36] = second compound 3.16 µM, first compound 10 µM
[37] = second compound 10 µM, first compound 0.0316 µM
[38] = second compound 10 µM, first compound 0.1 µM
[39] = second compound 10 µM, first compound 0.316 µM
[40] = second compound 10 µM, first compound 1 µM
[41] = second compound 10 µM, first compound 3.16 µM
[42] = second compound 10 µM, first compound 10 µM
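Also: spheroids exposed to compound for 7 days before viability read.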
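For viability, T/C in this document: 100% = DMSO vehicle-treated spheroids.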

Molecule `CCCS(=O)(=O)Nc1ccc(F)c(C(=O)c2c[nH]c3ncc(-c4ccc(Cl)cc4)cc23)c1F` + Cc1nc(NC(=O)N2CCCC2C(N)=O)sc1-c1ccnc(C(C)(C)C(F)(F)F)c1 has an IC50 [1] of 5560 nM, an IC50 [2] of 5710 nM and an IC50 [3] of 4720 nM. The IC50 [4] was < 31.6 nM, the IC50 [5] was < 31.6 nM and the IC50 [6] was < 31.6 nM. It also gave a viability, T/C [7] of 97.5%, a viability, T/C [8] of 91% and a viability, T/C [9] of 97.2%. The viability, T/C [10] was 92.2%, the viability, T/C [11] was 86.9% and the viability, T/C [12] was 11.7%. For the same molecule, the viability, T/C [13] was 92.4%, the viability, T/C [14] was 99.3% and the viability, T/C [15] was 99.3%. It also gave a viability, T/C [16] of 97.5%, a viability, T/C [17] of 91.8% and a viability, T/C [18] of 10.3%. It also gave a viability, T/C [19] of 57.6%, a viability, T/C [20] of 60.3% and a viability, T/C [21] of 73.7%. The viability, T/C [22] was 87.1%, the viability, T/C [23] was 82.2% and the viability, T/C [24] was 8.31%. For the same molecule, the viability, T/C [25] was 32.2%, the viability, T/C [26] was 36.7% and the viability, T/C [27] was 40.8%. It also gave a viability, T/C [28] of 49%, a viability, T/C [29] of 50.2% and a viability, T/C [30] of 5.09%. The viability, T/C [31] was 15.2%, the viability, T/C [32] was 16.1% and the viability, T/C [33] was 18.9%. For the same molecule, the viability, T/C [34] was 21.9%, the viability, T/C [35] was 23.4% and the viability, T/C [36] was 2.52%. The viability, T/C [37] was 3.53%, the viability, T/C [38] was 3.46% and the viability, T/C [39] was 3.9%. For the same molecule, the viability, T/C [40] was 5.16%, the viability, T/C [41] was 5.53% and the viability, T/C [42] was 2.11%.
In the case of `C#Cc1c(F)ccc2cc(O)cc(-c3ncc4c(N5CC6CCC(C5)N6)nc(OCC56CCCN5CC(F)C6)nc4c3F)c12` (stereo not drawn), the viability, T/C (compound 0.0316 µM) is reported as 86.7% [middle of 4 runs], the viability, T/C (compound 0.1 µM) is reported as 70.6% [middle of 4 runs] and the viability, T/C (compound 0.316 µM) is reported as 53.7% [middle of 4 runs]. For the same molecule, the viability, T/C (compound 1 µM) was 40.4% [middle of 4 runs], the viability, T/C (compound 3.16 µM) was 35.4% [middle of 4 runs] and the viability, T/C (compound 10 µM) was 27.9% [middle of 4 runs]. For the same molecule, the IC50 (curve of compound) was 425 nM [middle of 4 runs].
Molecule `CC(C)n1nc(-c2ccc3oc(N)nc3c2)c2c(N)ncnc21` + CC(Nc1ncnc2nc[nH]c12)c1cc2cccc(Cl)c2c(=O)n1-c1ccccc1 has an IC50 [1] of 12.4 nM, an IC50 [2] of 9.88 nM and an IC50 [3] of 10.3 nM. For the same molecule, the IC50 [4] was 8.02 nM, the IC50 [5] was 4.14 nM and the IC50 [6] was 1.21 nM. For the same molecule, the viability, T/C (second compound 0.0316 µM, first compound 0.000316 µM) was 89.7%, the viability, T/C (second compound 0.0316 µM, first compound 0.001 µM) was 75.7% and the viability, T/C (second compound 0.0316 µM, first compound 0.00316 µM) was 86.5%. It also gave a viability, T/C (second compound 0.0316 µM, first compound 0.01 µM) of 53.3%, a viability, T/C [7] of 22.7% and a viability, T/C [8] of 3.39%. The viability, T/C (second compound 0.1 µM, first compound 0.000316 µM) was 89.8%, the viability, T/C (second compound 0.1 µM, first compound 0.001 µM) was 90.5% and the viability, T/C (second compound 0.1 µM, first compound 0.00316 µM) was 71.8%. The viability, T/C (second compound 0.1 µM, first compound 0.01 µM) was 51.1%, the viability, T/C [13] was 21% and the viability, T/C [14] was 4.54%. It also gave a viability, T/C (second compound 0.316 µM, first compound 0.000316 µM) of 96.2%, a viability, T/C (second compound 0.316 µM, first compound 0.001 µM) of 94.3% and a viability, T/C (second compound 0.316 µM, first compound 0.00316 µM) of 78.2%. It also gave a viability, T/C (second compound 0.316 µM, first compound 0.01 µM) of 50.7%, a viability, T/C [19] of 20.4% and a viability, T/C [20] of 3.31%. The viability, T/C (second compound 1 µM, first compound 0.000316 µM) was 93.1%, the viability, T/C (second compound 1 µM, first compound 0.001 µM) was 89.3% and the viability, T/C (second compound 1 µM, first compound 0.00316 µM) was 67.4%. For the same molecule, the viability, T/C (second compound 1 µM, first compound 0.01 µM) was 47.3%, the viability, T/C [25] was 18.5% and the viability, T/C [26] was 3.26%. For the same molecule, the viability, T/C (second compound 3.16 µM, first compound 0.000316 µM) was 84.5%, the viability, T/C (second compound 3.16 µM, first compound 0.001 µM) was 71.8% and the viability, T/C (second compound 3.16 µM, first compound 0.00316 µM) was 53.8%. The viability, T/C (second compound 3.16 µM, first compound 0.01 µM) was 37%, the viability, T/C [31] was 13.3% and the viability, T/C [32] was 3.36%. For the same molecule, the viability, T/C (second compound 10 µM, first compound 0.000316 µM) was 55.8%, the viability, T/C (second compound 10 µM, first compound 0.001 µM) was 52.1% and the viability, T/C (second compound 10 µM, first compound 0.00316 µM) was 40%. The viability, T/C (second compound 10 µM, first compound 0.01 µM) was 22.2%, the viability, T/C [37] was 7.46% and the viability, T/C [38] was 3.13%.
With `CC(Cn1ccc(-c2ccc(C#N)c(Cl)c2)n1)NC(=O)c1cc(C(C)O)[nH]n1` (stereo not drawn) + Cc1nc(NC(=O)N2CCCC2C(N)=O)sc1-c1ccnc(C(C)(C)C(F)(F)F)c1 the IC50 [1] was > 10000 nM, the IC50 [2] was > 10000 nM and the IC50 [3] was 4160 nM. For the same molecule, the IC50 [4] was < 31.6 nM, the IC50 [5] was < 31.6 nM and the IC50 [6] was < 31.6 nM. The viability, T/C [7] was 101%, the viability, T/C [8] was 85.3% and the viability, T/C [9] was 87.7%. It also gave a viability, T/C [10] of 93.7%, a viability, T/C [11] of 85% and a viability, T/C [12] of 62.8%. It also gave a viability, T/C [13] of 74.8%, a viability, T/C [14] of 72.9% and a viability, T/C [15] of 81.3%. It also gave a viability, T/C [16] of 80%, a viability, T/C [17] of 75.6% and a viability, T/C [18] of 59.1%. The viability, T/C [19] was 55.5%, the viability, T/C [20] was 55.3% and the viability, T/C [21] was 50.7%. For the same molecule, the viability, T/C [22] was 57.7%, the viability, T/C [23] was 52.5% and the viability, T/C [24] was 40.3%. It also gave a viability, T/C [25] of 34.4%, a viability, T/C [26] of 32.9% and a viability, T/C [27] of 33.4%. The viability, T/C [28] was 30.8%, the viability, T/C [29] was 30.5% and the viability, T/C [30] was 24.4%. The viability, T/C [31] was 14.5%, the viability, T/C [32] was 13.7% and the viability, T/C [33] was 15.3%. The viability, T/C [34] was 13.1%, the viability, T/C [35] was 14.2% and the viability, T/C [36] was 11.9%. For the same molecule, the viability, T/C [37] was 3.76%, the viability, T/C [38] was 3.6% and the viability, T/C [39] was 3.61%. The viability, T/C [40] was 3.9%, the viability, T/C [41] was 3.74% and the viability, T/C [42] was 3.87%.
